What all share (assay): Ambit kinase profiling, competition binding
The target of assay [1] is T1, CSK (Homo sapiens, UniProt P41240).
T1 construct: purchased Ambit Biosciences (KINOMEscan)
As to conditions: for % Competition: 10 µM. As for the experimental part: (§1) Also included in the kinase profile are four isoforms of PKC (δ, ε, η, θ) and eight isoforms of CAMKs (CAMKIα, δ, γ; CAMKIIα, β, δ, γ; CAMK4).
(§2) The global kinase profiling experiment was performed by Ambit Biosciences.

The target of assay [2] is T2, TNNI3K (Homo sapiens, UniProt Q59H18).
T2 construct: purchased Ambit Biosciences (KINOMEscan)
T2 sequence (Q59H18 1-835): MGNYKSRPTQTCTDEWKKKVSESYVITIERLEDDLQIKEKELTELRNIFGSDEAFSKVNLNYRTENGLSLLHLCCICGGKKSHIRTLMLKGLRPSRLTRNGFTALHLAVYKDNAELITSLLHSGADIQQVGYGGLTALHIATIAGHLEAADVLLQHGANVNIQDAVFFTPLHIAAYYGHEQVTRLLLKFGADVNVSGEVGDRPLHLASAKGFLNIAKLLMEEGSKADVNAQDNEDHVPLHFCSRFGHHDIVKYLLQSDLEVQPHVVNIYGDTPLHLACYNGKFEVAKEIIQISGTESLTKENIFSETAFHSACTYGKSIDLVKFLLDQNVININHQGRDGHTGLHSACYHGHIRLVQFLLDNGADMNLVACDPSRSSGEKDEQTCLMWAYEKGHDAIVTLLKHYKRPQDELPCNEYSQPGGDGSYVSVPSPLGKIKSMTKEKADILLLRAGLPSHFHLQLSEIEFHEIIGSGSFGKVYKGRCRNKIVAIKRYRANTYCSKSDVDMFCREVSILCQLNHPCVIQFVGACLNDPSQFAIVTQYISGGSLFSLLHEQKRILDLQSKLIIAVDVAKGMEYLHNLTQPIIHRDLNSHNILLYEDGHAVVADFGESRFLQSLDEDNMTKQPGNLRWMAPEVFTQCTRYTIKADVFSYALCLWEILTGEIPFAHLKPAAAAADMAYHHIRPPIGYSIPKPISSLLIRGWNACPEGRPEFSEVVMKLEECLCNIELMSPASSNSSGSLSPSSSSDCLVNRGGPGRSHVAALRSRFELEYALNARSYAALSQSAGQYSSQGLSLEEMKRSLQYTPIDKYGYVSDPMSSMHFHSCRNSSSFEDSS
As for the experimental part: as §1, §2

Assay [3] addresses T3, p38-alpha (Homo sapiens, UniProt Q16539).
T3 construct: purchased Ambit Biosciences (KINOMEscan)
The conditions noted are these: for % Competition: 10 µM. The procedure: as §1, §2

In assay [4] the target is T4, CIT (Homo sapiens, UniProt O14578).
T4 construct: purchased Ambit Biosciences (KINOMEscan)
T4 sequence (O14578 whole entry): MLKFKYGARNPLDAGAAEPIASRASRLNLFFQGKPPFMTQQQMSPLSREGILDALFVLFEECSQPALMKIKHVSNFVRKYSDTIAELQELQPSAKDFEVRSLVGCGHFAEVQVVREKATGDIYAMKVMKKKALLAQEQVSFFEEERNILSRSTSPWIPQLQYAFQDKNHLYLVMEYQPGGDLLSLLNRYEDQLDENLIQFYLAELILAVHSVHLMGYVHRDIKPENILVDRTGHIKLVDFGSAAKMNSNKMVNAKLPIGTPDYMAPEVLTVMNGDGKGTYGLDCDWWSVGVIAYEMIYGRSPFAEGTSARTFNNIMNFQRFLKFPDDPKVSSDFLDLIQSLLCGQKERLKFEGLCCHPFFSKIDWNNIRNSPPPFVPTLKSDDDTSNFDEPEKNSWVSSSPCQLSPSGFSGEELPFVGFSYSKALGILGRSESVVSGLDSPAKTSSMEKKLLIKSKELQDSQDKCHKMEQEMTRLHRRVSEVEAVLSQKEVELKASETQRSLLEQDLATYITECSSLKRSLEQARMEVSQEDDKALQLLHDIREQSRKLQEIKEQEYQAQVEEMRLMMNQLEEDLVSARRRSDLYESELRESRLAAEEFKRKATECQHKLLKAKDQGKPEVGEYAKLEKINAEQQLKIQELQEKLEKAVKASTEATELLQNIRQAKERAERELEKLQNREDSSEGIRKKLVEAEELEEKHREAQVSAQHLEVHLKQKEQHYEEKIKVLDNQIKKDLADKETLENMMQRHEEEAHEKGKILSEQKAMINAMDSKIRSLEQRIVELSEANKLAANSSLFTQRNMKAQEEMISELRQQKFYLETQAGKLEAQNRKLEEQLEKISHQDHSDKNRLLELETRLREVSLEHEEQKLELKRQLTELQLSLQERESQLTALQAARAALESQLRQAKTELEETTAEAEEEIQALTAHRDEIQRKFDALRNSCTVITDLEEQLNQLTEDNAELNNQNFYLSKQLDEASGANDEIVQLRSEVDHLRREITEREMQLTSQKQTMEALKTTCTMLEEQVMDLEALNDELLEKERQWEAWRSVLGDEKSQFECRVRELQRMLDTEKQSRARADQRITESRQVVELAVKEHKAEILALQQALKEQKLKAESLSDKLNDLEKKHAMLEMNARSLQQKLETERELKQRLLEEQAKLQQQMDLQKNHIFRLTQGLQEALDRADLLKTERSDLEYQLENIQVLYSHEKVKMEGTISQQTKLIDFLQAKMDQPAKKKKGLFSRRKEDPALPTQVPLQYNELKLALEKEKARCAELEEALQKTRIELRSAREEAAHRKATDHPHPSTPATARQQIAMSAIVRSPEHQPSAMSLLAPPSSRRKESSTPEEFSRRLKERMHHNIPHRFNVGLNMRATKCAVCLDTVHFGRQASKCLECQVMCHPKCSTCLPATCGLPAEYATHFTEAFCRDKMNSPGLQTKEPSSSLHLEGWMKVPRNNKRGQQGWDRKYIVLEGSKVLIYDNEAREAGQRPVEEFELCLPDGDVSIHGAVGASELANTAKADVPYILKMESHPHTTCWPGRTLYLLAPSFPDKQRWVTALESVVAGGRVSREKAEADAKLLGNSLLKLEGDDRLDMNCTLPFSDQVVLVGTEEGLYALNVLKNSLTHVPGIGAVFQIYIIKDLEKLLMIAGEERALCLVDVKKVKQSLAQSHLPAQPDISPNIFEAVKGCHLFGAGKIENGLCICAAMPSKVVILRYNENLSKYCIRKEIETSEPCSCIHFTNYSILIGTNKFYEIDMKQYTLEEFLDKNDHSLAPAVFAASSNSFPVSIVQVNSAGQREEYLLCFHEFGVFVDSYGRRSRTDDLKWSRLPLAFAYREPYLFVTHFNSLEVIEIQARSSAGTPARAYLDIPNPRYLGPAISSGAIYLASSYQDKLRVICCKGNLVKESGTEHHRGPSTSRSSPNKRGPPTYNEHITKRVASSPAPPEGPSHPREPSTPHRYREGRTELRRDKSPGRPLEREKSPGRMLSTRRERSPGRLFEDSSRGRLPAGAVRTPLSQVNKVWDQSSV
The conditions noted are these: for % Competition: 10 µM. As for the experimental part:
as §1, §2

Assay [5] concerns the target T5, GSK3A (Homo sapiens, UniProt P49840).
T5 construct: purchased Ambit Biosciences (KINOMEscan)
As for the experimental part: as §1, §2

Assay [6] concerns the target T6, TAOK3 (Homo sapiens, UniProt Q9H2K8).
T6 construct: purchased Ambit Biosciences (KINOMEscan)
T6 sequence (Q9H2K8 1-898): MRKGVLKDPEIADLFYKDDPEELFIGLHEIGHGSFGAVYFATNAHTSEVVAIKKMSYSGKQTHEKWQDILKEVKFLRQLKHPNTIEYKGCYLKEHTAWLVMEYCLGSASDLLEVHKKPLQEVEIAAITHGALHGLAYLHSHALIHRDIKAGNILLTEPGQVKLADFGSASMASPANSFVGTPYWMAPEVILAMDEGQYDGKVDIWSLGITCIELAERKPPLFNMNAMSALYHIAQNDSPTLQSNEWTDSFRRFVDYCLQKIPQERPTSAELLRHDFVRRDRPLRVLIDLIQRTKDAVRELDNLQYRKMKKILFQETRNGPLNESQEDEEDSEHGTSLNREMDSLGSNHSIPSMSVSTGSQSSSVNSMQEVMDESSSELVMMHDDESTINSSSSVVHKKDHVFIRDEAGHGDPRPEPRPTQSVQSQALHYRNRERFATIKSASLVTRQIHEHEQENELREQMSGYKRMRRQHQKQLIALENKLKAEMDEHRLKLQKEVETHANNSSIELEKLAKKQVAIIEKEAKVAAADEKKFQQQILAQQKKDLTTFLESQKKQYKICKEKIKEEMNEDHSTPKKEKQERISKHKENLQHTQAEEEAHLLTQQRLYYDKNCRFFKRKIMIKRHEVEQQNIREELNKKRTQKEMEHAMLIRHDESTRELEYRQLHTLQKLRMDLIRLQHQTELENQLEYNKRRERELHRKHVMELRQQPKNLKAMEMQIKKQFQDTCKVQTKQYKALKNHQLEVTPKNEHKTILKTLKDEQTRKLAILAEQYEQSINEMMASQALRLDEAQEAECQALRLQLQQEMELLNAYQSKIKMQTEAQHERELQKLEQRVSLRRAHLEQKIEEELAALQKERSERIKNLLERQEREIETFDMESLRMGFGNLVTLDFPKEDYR
The procedure:
as §1, §2

In assay [7] the target is T7, JNK1 (Homo sapiens, UniProt P45983).
T7 construct: purchased Ambit Biosciences (KINOMEscan)
T7 sequence (P45983 whole entry): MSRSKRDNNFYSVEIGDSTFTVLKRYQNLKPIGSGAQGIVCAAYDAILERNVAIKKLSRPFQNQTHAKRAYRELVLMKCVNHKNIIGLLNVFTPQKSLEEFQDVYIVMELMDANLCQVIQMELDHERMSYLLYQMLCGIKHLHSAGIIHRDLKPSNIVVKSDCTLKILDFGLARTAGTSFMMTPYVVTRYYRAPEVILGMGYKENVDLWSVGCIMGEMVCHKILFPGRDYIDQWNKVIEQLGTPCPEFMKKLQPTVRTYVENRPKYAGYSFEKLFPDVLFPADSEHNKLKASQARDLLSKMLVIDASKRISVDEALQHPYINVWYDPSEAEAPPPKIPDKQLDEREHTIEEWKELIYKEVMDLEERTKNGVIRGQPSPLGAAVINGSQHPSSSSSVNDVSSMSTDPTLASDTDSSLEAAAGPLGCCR
As to conditions: for % Competition: 10 µM. As for the experimental part:
as §1, §2

Assay [8] addresses T8, RET (Homo sapiens, UniProt P07949).
T8 construct: purchased Ambit Biosciences (KINOMEscan)
The procedure:
as §1, §2

The target in assay [9] is T9, EGFR(G719C) (Homo sapiens, UniProt P00533, G719C).
T9 construct: purchased Ambit Biosciences (KINOMEscan)
As to conditions: for % Competition: 10 µM. The procedure:
as §1, §2

Assay [10] addresses T10, ADCK4 (Homo sapiens, UniProt Q96D53).
T10 construct: purchased Ambit Biosciences (KINOMEscan)
T10 sequence (Q96D53 1-544): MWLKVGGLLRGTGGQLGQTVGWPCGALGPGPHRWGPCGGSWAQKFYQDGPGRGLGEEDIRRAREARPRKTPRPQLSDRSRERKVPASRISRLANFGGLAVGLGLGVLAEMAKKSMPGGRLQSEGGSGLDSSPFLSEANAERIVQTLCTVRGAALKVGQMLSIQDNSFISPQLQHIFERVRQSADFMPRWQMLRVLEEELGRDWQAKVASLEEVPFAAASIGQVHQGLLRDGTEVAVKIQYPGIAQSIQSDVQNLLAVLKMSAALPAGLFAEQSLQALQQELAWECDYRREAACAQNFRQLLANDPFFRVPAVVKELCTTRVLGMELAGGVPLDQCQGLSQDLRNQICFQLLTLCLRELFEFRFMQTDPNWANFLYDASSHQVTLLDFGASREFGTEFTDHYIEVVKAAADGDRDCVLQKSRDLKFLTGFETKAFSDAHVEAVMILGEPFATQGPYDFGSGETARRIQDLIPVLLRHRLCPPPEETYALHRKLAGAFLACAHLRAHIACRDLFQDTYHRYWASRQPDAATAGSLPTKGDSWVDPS
The procedure:
as §1, §2

In assay [11] the target is T11, PKAC-beta (Homo sapiens, UniProt P22694).
T11 construct: purchased Ambit Biosciences (KINOMEscan)
The procedure:
as §1, §2

SMILES strings stand for the structures. Like-named read-outs stand apart in the source and are kept apart here.

T8 sequence (P07949 29-1114): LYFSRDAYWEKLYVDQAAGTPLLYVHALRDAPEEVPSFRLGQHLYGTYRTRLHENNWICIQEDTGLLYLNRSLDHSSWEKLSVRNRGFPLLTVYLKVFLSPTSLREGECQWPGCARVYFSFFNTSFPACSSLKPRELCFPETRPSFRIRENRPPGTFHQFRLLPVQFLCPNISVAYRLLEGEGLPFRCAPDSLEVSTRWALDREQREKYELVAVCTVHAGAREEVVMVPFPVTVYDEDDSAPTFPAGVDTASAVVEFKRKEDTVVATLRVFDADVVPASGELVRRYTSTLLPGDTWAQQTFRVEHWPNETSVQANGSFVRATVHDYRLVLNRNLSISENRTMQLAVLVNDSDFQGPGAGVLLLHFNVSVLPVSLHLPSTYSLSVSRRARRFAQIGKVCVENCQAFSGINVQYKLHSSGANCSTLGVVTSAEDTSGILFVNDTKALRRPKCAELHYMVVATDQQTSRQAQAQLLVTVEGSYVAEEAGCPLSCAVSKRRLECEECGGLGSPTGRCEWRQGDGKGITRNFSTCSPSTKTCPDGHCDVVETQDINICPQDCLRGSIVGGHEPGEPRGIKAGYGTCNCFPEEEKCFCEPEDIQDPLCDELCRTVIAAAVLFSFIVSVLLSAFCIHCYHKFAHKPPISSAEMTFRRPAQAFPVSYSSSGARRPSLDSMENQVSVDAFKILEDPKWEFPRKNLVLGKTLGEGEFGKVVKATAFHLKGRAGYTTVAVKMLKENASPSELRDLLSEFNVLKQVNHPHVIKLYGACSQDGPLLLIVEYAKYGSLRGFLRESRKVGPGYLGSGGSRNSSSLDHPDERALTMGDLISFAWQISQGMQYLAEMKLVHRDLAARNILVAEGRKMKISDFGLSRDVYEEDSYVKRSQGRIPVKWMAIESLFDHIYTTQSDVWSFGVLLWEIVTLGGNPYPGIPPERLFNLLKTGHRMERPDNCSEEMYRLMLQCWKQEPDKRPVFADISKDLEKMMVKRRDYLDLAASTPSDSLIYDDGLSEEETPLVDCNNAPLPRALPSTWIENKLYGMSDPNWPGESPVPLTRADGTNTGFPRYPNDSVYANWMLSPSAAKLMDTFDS
T1 sequence (P41240 whole entry): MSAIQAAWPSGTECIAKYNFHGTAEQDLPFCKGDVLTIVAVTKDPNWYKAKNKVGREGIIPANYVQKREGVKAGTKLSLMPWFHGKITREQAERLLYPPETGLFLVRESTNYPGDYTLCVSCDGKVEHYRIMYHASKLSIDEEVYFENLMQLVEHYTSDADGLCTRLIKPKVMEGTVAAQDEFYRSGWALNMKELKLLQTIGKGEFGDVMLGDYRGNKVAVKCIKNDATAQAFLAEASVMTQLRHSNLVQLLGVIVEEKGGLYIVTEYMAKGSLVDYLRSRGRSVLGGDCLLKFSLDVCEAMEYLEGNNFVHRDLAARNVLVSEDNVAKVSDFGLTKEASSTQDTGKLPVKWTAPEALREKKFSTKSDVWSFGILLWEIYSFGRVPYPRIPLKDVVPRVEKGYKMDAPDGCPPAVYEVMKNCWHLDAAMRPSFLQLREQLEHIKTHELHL
T3 sequence (Q16539 whole entry): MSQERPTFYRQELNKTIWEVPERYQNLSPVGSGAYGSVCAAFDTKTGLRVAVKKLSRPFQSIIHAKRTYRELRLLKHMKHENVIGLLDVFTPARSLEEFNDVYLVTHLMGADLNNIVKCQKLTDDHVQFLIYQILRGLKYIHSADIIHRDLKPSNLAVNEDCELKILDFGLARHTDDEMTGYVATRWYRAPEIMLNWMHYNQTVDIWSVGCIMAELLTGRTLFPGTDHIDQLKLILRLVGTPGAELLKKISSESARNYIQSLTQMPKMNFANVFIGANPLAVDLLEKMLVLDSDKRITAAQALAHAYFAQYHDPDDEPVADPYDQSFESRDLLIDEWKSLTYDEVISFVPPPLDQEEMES
T5 sequence (P49840 whole entry): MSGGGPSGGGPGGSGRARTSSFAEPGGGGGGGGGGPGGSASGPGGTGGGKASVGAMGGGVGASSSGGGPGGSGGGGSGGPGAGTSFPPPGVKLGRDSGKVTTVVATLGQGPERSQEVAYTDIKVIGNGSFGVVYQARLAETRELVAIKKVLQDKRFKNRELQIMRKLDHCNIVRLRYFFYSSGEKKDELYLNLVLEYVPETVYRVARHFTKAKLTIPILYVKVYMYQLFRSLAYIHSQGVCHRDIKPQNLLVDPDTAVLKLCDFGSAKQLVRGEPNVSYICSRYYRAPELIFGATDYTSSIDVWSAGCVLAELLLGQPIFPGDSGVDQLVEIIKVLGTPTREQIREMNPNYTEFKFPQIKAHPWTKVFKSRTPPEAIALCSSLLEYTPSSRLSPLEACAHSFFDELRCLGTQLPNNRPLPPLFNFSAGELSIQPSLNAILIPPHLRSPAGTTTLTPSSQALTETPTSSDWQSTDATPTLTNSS

`Fc1ccc(-c2c(-c3ccncc3)[nH]c3nccnc23)cc1` [Compound 122]: the “% Competition” value came out at 71% in assay [1]; 100% in assay [3]; 99% in assay [4]; 100% in [7]; 99% in assay [9]. For the same compound, the inhibition at 10 µM in assay [2] (TNNI3K, 10 µM, read-out: % Competition) came out at 67%; in [5] (GSK3A, 10 µM, read-out: % Competition), 98%; in [6] (TAOK3, 10 µM, read-out: % Competition) it was 80%; in assay [8] (RET, 10 µM, read-out: % Competition) it was 68%; in [10] (ADCK4, 10 µM, read-out: % Competition), 94%; in assay [11] (PKAC-beta, 10 µM, read-out: % Competition), 67%.

With `CC(O)CNc1cc(-c2[nH]c3cccnc3c2-c2ccc(F)cc2)ccn1` (stereo not drawn) [Compound 140], the “% Competition” value in [1] is less than 50%; in assay [3], 100%; in [4], 99%; in assay [7], 100%; in assay [9], 87%. In addition, the inhibition at 10 µM is less than 50% in [2] (read-out: % Competition); less than 50% in assay [5] (read-out: % Competition); less than 50% in assay [6] (read-out: % Competition); less than 50% in assay [8] (read-out: % Competition); 98% in assay [10] (read-out: % Competition); less than 50% in assay [11] (read-out: % Competition).

As to `Fc1ccc(-c2c(-c3ccncc3)[nH]c3nccnc23)cc1` [RO1155697-000-005], the “Percent Competition” value is given as 71% in assay [1] (compound concentration 10 uM); 100% in [3] (compound concentration 10 uM); 99% in [4] (compound concentration 10 uM); 100% in [7] (compound concentration 10 uM); 99% in assay [9] (compound concentration 10 uM). Besides, the inhibition at 10 µM came out at 67% in assay [2] (TNNI3K, compound concentration 10 uM, read-out: Percent Competition); 98% in assay [5] (GSK3A, compound concentration 10 uM, read-out: Percent Competition); 80% in assay [6] (TAOK3, compound concentration 10 uM, read-out: Percent Competition); 68% in assay [8] (RET, compound concentration 10 uM, read-out: Percent Competition); 94% in assay [10] (ADCK4, compound concentration 10 uM, read-out: Percent Competition); 67% in [11] (PKAC-beta, compound concentration 10 uM, read-out: Percent Competition).

Source of the values: article PMC3445516 (PLoS ONE, 2012).
